{"source": "patent US9833447B2", "about": "“5-HT4 receptor agonist for gastroparesis” (RAQUALIA PHARMA INC., priority 2014, dated 2017)", "key": {"[1]": {"tested_on": "clonidine-induced gastroparesis model in dogs", "assay": "Gastric emptying rates in conscious dogs, clonidine-induced gastroparesis model (acetaminophen method)", "assay_type": "in vivo, beagle dogs", "conditions": "clonidine 0.01 mg/kg s.c.", "method": "Measurement of Gastric Emptying Rates in Conscious Dogs\nAll dogs are purchased from Kitayama Labes Co., Ltd. (Oriental Yeast Co., Ltd.). The animals are acclimatized to the laboratory conditions during experiments.\nDogs are fasted overnight, and then they are fed the test meal (10 mL/kg), which is ingested within 3 minutes. Blood samples are obtained at 0, 15, 30, 45, 60, 75, and 90 minutes after test meal administration. To provide a model of gastroparesis, 0.01 mg/kg of clonidine (alpha2 adrenergic agonist, Wako Pure Chemical Industries, Ltd., Osaka, Japan) is injected subcutaneously 30 minutes before test meal administration. […] Plasma is separated from the blood by centrifugation at 3,000 g for 5 min at 4° C. (himac CF15D, Hitachi Koki Co., Ltd., Tokyo, Japan). The plasma acetaminophen concentration is measured by LC-mass spectrometry.\nAliquots of dog plasma (50 microL) and 50 microL of internal standard (IS)* solution are mixed and vortexed well, and then they are diluted to a final volume of 750 microL with 50 mM ammonium acetate. As IS, [D4]4-acetamidophenol is used. Following conditioning of the solid phase extraction (SPE) 96 well plate (OASIS HLB, 10 mg/well, 30 microm, Waters Corporation, Milford, Mass., USA) with 700 microL methanol and 700 microL water in sequence, 750 microL of the plasma samples are transferred to the SPE plate for extraction. The SPE plate is then washed with 700 microL of 5% methanol. Samples are eluted twice off the SPE plate into a clean 96 deep well plate by addition of 250 microL of methanol. The eluent is then evaporated to dryness under 40° C. gentle stream of nitrogen, and reconstituted in 100 microL of acetonitrile/10 mM ammonium acetate (1/9, v/v). The samples are injected into HPLC column, and then the effluent from HPLC column is directly introduced into the turboionspray ion source, which is operated at the following conditions: * 300 ng/mL [D4]4-acetamidophenol: 10% methanol solution."}, "[2]": {"tested_on": "patients with gastroparesis", "assay": "Gastric emptying rates in patients with gastroparesis (SmartPill)", "assay_type": "in vivo, human", "method": "Measurement of Gastric Emptying Rates in Patients with Gastroparesis Clinical studies in patients with gastroparesis are conducted. Effect of Compound A on gastric emptying time (GET) is confirmed with SmartPill (Registered Trademark, Given Imaging Ltd.). SmartPill is an ingestible capsule that measures pressure, pH and temperature as it travels through the gastrointestinal (GI) tract to assess GI motility. The SmartPill motility monitoring test can be performed at a clinic or physician's office to evaluate motility disorders like gastroparesis (a condition in which the contents of the stomach empty too slowly) and chronic constipation. An improved gastric emptying time and colonic transit time are observed in the clinical studies."}, "[3]": {"tested_on": "healthy male human subjects", "assay": "Gastric emptying rates in healthy male human subjects (13C-breath test, BreathID)", "assay_type": "in vivo", "method": "Measurement of Gastric Emptying Rates in Human Study Population\nHealthy male subjects, who aged between 18 and 55 years old and have a normal gastric emptying (GE) rate, are screened and enrolled into the study.\nSubjects are given single oral doses of Compound A at 0.6 and 3 microg. Subjects swallowed dosing solution (20 mL) of appropriate Compound A concentrations. The dosing bottle is rinsed with 20 mL of water, and this rinse is swallowed by the subjects. The subjects then swallowed 200 mL of room temperature water, resulting in a total fluid intake at dosing of 240 mL.\nGE is monitored with ^13C-breath test using the BreathiD system (Exalenz Bioscience Inc., Modin, Israel), which enables to continuously analyze the subject's breath for exhaled CO2 via a nasal cannula using molecular correlation spectrometry at the bedside. […] GE rate of solids is evaluated over the 4 hours period following ingestion of a standardized solid test meal, which are comprised of 2 slices of bread, 1 egg and 150 mL water including an egg yolk that have been mixed with 100 mg ^13C-octanoic acid (total calorific intake of 200-300 kcal). […] The parameters for GE of gastric half emptying time (GET1/2), lag phase (Tlag), gastric emptying coefficient (GEC) and gastric emptying area under the effect curve (AUEC) are automatically calculated."}}, "note": "“Also recorded” adds a separate entry of the source."}
{"smiles": "Clc1cccc(Cl)c1N=C1NCCN1", "note": "[clonidine, reference compound]", "values": [{"measurement": "Plasma APAP concentration at 60 min after meal administration", "setting": "[1]; gastroparesis model induction", "value": "significantly decreased"}]}
{"smiles": "COc1cc(N)c(Cl)cc1C(=O)NC1CCN(CCCOc2ccc(F)cc2)CC1OC", "note": "(stereo not shown) [Cisapride, cisapride, reference compound]", "values": [{"measurement": "Effect on delayed gastric emptying induced by clonidine (plasma acetaminophen)", "setting": "[1]; cisapride 1, 3 mg/kg p.o.", "value": "reversed delayed gastric emptying"}]}
{"smiles": "O=C(O)C1(CN2CCC(COc3noc4cccc(OCC(F)(F)F)c34)CC2)CCOCC1", "note": "[Compound A, 4-{[4-({[4-(2,2,2-trifluoroethoxy)-1,2-benzisoxazol-3-yl]-oxy}methyl)piperidin-1-yl]methyl}tetrahydro-2H-pyran-4-carboxylic acid]", "values": [{"measurement": "Colonic transit time", "setting": "[2]", "value": "improved"}, {"measurement": "Gastric emptying time (GET)", "setting": "[2]", "value": "improved"}, {"measurement": "Effect on delayed gastric emptying induced by clonidine (plasma acetaminophen)", "setting": "[1]; Compound A 0.3 microg/kg p.o.", "value": "significantly restored delayed gastric emptying induced by clonidine (0.01 mg/kg) to the normal levels; also recorded: equivalent to that of cisapride (1 mg/kg, p.o.)"}, {"measurement": "Severe Adverse Events and undesirable adverse events including QT/QTc prolongation", "setting": "[3]; even at supratherapeutic doses, human healthy subjects", "value": "No Severe Adverse Events (SAEs) and undesirable adverse events"}, {"measurement": "Absolute change from baseline in gastric half emptying time (GET1/2)", "setting": "[3]; single oral doses 0.6 and 3 microg, healthy male human subjects", "value": "clearly observed; also recorded: improved"}]}
